Among the data in ChEMBL document CHEMBL1909046, “DrugMatrix in vitro pharmacology data” are IC50 and Ki values, retold here.

Mu-type opioid receptor, sequence (P35372 whole entry): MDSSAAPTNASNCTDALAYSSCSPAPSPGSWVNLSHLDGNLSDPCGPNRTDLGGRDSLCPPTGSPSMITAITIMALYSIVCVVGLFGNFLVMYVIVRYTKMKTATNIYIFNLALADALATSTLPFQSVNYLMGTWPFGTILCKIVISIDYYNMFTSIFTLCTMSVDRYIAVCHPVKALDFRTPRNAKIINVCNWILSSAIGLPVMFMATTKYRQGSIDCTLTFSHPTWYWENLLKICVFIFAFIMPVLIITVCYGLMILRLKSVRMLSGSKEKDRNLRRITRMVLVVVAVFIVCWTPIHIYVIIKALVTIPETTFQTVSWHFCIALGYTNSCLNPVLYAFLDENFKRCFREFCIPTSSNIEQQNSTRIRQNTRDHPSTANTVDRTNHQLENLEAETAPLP
Beta-1 adrenergic receptor, sequence (P08588 whole entry): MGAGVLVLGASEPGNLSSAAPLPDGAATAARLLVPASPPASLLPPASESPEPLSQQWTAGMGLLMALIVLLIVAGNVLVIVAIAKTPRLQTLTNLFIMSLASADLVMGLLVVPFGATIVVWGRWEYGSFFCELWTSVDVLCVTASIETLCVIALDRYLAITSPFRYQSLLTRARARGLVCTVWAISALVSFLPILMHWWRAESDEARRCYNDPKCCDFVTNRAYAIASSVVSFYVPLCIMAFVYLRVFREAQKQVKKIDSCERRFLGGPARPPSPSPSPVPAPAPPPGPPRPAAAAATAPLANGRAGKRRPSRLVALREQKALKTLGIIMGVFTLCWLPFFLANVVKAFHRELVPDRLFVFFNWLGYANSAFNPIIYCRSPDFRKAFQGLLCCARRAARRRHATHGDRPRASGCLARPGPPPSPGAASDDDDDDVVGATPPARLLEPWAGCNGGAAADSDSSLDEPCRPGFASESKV
Melanocortin receptor 4, sequence (P32245 whole entry): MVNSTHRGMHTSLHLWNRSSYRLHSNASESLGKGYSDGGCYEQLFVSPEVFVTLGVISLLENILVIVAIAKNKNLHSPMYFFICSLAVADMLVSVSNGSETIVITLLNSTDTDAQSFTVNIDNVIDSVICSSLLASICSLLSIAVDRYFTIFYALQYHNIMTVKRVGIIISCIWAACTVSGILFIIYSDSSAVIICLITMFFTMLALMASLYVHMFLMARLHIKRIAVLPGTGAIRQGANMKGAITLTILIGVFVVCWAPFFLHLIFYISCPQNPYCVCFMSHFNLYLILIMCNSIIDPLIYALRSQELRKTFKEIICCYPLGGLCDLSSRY

One assay has as its target T1, Cathepsin G (Homo sapiens, UniProt P08311).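 Further: inhibition of Cathepsin G enzyme activity, tested on an AMC-conjugated peptide substrate; in other assays of this panel Not Active means under 50% inhibition at 10 µM.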
T1 sequence (P08311 whole entry): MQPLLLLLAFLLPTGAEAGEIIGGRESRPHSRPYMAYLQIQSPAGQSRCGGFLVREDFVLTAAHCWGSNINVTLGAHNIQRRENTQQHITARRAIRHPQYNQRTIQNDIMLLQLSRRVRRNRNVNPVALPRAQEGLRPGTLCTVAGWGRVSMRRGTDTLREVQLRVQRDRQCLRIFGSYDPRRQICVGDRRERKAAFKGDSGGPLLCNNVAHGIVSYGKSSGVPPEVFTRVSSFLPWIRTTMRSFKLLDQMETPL
Assay: not given
It is filed as tissue-based. The settings on record: neutrophil.
As to `C[C@]12CCC(=O)C=C1CC[C@@H]1[C@@H]2C(=O)C[C@@]2(C)[C@H]1CC[C@]2(O)C(=O)CO` [CORTISONE], the IC50 result was “Not Active”.

A further assay concerns the target T2, D(4) dopamine receptor (Homo sapiens, UniProt P21917).
T2 sequence (P21917 whole entry): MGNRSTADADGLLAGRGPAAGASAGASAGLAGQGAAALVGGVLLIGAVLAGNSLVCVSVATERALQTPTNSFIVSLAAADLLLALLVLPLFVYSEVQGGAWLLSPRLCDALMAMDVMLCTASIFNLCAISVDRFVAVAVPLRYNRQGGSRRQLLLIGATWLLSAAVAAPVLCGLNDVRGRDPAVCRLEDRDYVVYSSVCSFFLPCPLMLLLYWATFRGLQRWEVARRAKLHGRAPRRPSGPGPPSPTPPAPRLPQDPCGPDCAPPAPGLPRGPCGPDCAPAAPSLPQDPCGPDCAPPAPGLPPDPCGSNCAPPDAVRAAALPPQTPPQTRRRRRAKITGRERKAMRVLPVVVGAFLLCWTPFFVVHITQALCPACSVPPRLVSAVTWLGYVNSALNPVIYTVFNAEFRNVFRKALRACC
As to the kind of experiment: DRUGMATRIX: Dopamine D4.2 radioligand binding (ligand: [3H] Spiperone). The settings on record: cho-k1; Not Active = under 50% inhibition at 10 µM. It is filed as cell membranes, CHO-K1, Membrane.
As to `C[C@]12CCC(=O)C=C1CC[C@@H]1[C@@H]2C(=O)C[C@@]2(C)[C@H]1CC[C@]2(O)C(=O)CO` [CORTISONE], the IC50 result was “Not Active”.

The target in another assay is 5-hydroxytryptamine receptor 1B (Rattus norvegicus, UniProt P28564). Further: in other assays of this panel Not Active means under 50% inhibition at 10 µM.
5-hydroxytryptamine receptor 1B, sequence (P28564 whole entry): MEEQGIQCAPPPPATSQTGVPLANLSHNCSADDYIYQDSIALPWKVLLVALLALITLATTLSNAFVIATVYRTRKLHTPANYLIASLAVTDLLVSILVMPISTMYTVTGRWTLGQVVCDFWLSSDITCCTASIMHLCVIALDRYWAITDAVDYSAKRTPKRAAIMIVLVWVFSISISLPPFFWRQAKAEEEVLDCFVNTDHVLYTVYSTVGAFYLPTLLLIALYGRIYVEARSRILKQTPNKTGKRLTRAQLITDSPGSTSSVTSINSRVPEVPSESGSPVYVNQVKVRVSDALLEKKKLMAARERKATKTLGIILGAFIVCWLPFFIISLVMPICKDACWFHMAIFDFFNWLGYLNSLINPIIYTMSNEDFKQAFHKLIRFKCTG
Assay: not given
It counts as cell membranes, Wistar, Cerebral cortex, Membrane.
Conditions: not given
Turning to `C[C@]12CCC(=O)C=C1CC[C@@H]1[C@@H]2C(=O)C[C@@]2(C)[C@H]1CC[C@]2(O)C(=O)CO` [CORTISONE], the IC50 entry was “Not Active”.

In the next assay the target is T3, Cysteinyl leukotriene receptor 1 (Homo sapiens, UniProt Q9Y271). Further: in other assays of this panel Not Active means under 50% inhibition at 10 µM.
T3 sequence (Q9Y271 whole entry): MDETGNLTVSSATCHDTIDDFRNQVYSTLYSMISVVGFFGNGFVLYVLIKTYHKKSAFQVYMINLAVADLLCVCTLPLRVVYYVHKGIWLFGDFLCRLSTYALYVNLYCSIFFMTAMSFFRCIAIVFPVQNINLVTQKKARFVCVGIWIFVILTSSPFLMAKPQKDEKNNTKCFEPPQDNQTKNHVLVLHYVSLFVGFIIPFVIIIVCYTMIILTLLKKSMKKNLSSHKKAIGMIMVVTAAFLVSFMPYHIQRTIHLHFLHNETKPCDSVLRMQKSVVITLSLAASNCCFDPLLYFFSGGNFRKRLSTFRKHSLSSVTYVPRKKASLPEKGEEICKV
Assay: not given
It is filed as cell membranes, CHO-K1, Membrane. The settings on record: cho-k1.
As to `C[C@]12CCC(=O)C=C1CC[C@@H]1[C@@H]2C(=O)C[C@@]2(C)[C@H]1CC[C@]2(O)C(=O)CO` [CORTISONE], the IC50 entry was “Not Active”.

The target in a further assay is Melanocortin receptor 5 (Homo sapiens, UniProt P33032). Further: in other assays of this panel Not Active means under 50% inhibition at 10 µM.
Melanocortin receptor 5, sequence (P33032 whole entry): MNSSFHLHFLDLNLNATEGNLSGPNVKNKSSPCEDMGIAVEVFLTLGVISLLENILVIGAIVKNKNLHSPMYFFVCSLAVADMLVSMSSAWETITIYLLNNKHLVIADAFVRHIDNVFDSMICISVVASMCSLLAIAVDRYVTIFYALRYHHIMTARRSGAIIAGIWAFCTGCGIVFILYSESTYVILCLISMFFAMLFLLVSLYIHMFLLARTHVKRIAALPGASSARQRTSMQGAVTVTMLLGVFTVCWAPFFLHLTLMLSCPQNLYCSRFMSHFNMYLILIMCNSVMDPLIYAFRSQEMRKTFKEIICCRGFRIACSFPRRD
Assay: not given
It is filed as cell membranes, HEK293, Membrane. The settings on record: hek293.
For the molecule `C[C@]12CCC(=O)C=C1CC[C@@H]1[C@@H]2C(=O)C[C@@]2(C)[C@H]1CC[C@]2(O)C(=O)CO` [CORTISONE], the IC50 result is “Not Active”.

The target of a further assay is T4, Caspase-1 (Homo sapiens, UniProt P29466).
T4 sequence (P29466 whole entry): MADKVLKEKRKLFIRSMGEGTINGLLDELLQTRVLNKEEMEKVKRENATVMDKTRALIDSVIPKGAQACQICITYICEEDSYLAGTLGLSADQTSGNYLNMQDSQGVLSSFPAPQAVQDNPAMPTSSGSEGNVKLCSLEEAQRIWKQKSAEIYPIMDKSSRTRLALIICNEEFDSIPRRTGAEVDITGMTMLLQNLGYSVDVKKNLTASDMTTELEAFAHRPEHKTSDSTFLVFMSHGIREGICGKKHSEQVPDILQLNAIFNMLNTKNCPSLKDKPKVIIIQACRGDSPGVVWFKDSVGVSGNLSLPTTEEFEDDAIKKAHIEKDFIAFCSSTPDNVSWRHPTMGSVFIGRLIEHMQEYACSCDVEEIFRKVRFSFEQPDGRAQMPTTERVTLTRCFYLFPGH
Assay: not given
The arrangement: species or system Escherichia coli.
Conditions: not given
As to `C[C@]12CCC(=O)C=C1CC[C@@H]1[C@@H]2C(=O)C[C@@]2(C)[C@H]1CC[C@]2(O)C(=O)CO` [CORTISONE], the IC50 result was “Not Active”.

A further assay has as its target Beta-1 adrenergic receptor (Homo sapiens, UniProt P08588). As to the kind of experiment: DRUGMATRIX: Adrenergic beta1 radioligand binding (ligand: [125I] Cyanopindolol). It is filed as cell membranes, CHO-K1, Membrane. The settings on record: cho-k1; Not Active = under 50% inhibition at 10 µM.
Take `C[C@]12CCC(=O)C=C1CC[C@@H]1[C@@H]2C(=O)C[C@@]2(C)[C@H]1CC[C@]2(O)C(=O)CO` [CORTISONE]: the IC50 entry was “Not Active”.

The next assay concerns the target Mu-type opioid receptor (Homo sapiens, UniProt P35372). As to the kind of experiment: DRUGMATRIX: Opiate mu (OP3, MOP) radioligand binding (ligand: [3H] Diprenorphine). The settings on record: cho-k1; Not Active = under 50% inhibition at 10 µM. It is filed as cell membranes, CHO-K1, Membrane.
`C[C@]12CCC(=O)C=C1CC[C@@H]1[C@@H]2C(=O)C[C@@]2(C)[C@H]1CC[C@]2(O)C(=O)CO` [CORTISONE]: the IC50 result is “Not Active”.

Test system in another assay: not listed separately
Put plainly: DRUGMATRIX: Purinergic P2X radioligand binding (ligand: [3H] alpha, beta-Methylene-ATP). It is filed as cell membranes, Oryctolagus cuniculus, New Zealand albino, Urinary bladder, Membrane. The settings on record: Not Active = under 50% inhibition at 10 µM.
Consider `C[C@]12CCC(=O)C=C1CC[C@@H]1[C@@H]2C(=O)C[C@@]2(C)[C@H]1CC[C@]2(O)C(=O)CO` [CORTISONE], for which the IC50 entry is recorded as “Not Active” and the Ki entry is “Not Active”.

Test system in another assay: not listed separately
Put plainly: DRUGMATRIX: Leukotriene, BLT (LTB4) radioligand binding (ligand: [3H]LTB4). The settings on record: u-937; Not Active = under 50% inhibition at 10 µM. It counts as cell membranes, Membrane.
Take `C[C@]12CCC(=O)C=C1CC[C@@H]1[C@@H]2C(=O)C[C@@]2(C)[C@H]1CC[C@]2(O)C(=O)CO` [CORTISONE]: the IC50 result is recorded as “Not Active” and the Ki entry is recorded as “Not Active”.

Test system in another assay: not listed separately
As to the kind of experiment: DRUGMATRIX: beta-Lactamase enzyme inhibition (substrate: Nitrocefin). Further details: species or system Bacillus cereus. The settings on record: Not Active = under 50% inhibition at 10 µM.
Turning to `C[C@]12CCC(=O)C=C1CC[C@@H]1[C@@H]2C(=O)C[C@@]2(C)[C@H]1CC[C@]2(O)C(=O)CO` [CORTISONE], the IC50 entry is “Not Active” and the Ki entry was “Not Active”.

Test system in another assay: not listed separately
Put plainly: DRUGMATRIX: Sigma2 radioligand binding (ligand: [3H] Ifenprodil). It counts as cell membranes, Rattus norvegicus, Wistar, Brain, Membrane. The settings on record: Not Active = under 50% inhibition at 10 µM.
On to `C[C@]12CCC(=O)C=C1CC[C@@H]1[C@@H]2C(=O)C[C@@]2(C)[C@H]1CC[C@]2(O)C(=O)CO` [CORTISONE], for which the IC50 entry is “Not Active” and the Ki entry is listed as “Not Active”.

In the next assay the target is Epidermal growth factor receptor (Homo sapiens, UniProt P00533). Put plainly: DRUGMATRIX: Protein Tyrosine Kinase, EGF Receptor enzyme inhibition (substrate: Poly(Glu:Tyr)). It is filed as cell-based, Insect cells. The settings on record: insect cells; Not Active = under 50% inhibition at 10 µM.
Epidermal growth factor receptor, sequence (P00533 whole entry): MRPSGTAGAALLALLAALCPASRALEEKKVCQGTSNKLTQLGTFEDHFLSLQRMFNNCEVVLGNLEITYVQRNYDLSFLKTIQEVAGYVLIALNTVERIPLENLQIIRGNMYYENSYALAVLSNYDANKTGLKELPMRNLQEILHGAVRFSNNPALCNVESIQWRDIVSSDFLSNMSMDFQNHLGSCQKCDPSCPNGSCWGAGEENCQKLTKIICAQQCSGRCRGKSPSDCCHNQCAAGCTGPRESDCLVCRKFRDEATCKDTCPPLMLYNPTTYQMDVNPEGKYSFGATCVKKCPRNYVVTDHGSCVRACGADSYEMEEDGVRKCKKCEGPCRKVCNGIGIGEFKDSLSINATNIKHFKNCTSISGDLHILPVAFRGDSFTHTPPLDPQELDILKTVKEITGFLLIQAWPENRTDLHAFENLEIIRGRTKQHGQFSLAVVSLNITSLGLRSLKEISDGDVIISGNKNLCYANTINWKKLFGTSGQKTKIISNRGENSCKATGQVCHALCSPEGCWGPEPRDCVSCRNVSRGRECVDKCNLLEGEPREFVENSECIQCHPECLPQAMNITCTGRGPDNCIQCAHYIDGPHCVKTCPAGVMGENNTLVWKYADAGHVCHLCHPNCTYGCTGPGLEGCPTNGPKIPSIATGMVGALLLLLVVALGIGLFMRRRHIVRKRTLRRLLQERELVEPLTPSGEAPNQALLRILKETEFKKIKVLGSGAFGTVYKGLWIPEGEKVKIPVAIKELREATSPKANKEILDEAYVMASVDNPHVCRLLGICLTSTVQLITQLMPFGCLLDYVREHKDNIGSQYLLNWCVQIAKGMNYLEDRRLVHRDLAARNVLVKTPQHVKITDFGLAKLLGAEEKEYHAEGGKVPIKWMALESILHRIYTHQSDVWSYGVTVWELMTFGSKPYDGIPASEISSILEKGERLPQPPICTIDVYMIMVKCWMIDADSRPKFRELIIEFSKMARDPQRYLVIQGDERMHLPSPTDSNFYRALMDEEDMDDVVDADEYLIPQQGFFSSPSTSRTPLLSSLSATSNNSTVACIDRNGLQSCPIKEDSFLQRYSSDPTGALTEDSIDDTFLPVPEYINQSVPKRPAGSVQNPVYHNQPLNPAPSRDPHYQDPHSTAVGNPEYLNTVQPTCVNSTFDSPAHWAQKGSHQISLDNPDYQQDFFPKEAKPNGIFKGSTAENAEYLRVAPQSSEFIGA
For the molecule `C[C@]12CCC(=O)C=C1CC[C@@H]1[C@@H]2C(=O)C[C@@]2(C)[C@H]1CC[C@]2(O)C(=O)CO` [CORTISONE], the IC50 entry was “Not Active”.

A further assay has as its target T5, 5-hydroxytryptamine receptor 2C (Homo sapiens, UniProt P28335).
T5 sequence (P28335 whole entry): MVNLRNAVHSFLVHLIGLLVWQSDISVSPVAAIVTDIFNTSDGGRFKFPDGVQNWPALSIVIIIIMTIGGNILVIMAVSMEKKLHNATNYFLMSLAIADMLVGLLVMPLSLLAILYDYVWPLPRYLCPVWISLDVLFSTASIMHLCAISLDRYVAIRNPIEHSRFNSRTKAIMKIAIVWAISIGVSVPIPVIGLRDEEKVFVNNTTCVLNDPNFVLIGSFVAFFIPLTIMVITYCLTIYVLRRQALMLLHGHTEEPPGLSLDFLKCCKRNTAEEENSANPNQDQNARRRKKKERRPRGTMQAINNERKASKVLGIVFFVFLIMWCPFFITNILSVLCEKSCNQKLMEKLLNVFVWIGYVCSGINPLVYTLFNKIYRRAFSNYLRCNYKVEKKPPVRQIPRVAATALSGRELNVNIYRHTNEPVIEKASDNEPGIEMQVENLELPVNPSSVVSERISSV
Put plainly: DRUGMATRIX: Serotonin (5-Hydroxytryptamine) 5-HT2C radioligand binding (ligand: [3H] Mesulergine). The settings on record: cho-k1; Not Active = under 50% inhibition at 10 µM. It counts as cell membranes, CHO-K1, Membrane.
On to `C[C@]12CCC(=O)C=C1CC[C@@H]1[C@@H]2C(=O)C[C@@]2(C)[C@H]1CC[C@]2(O)C(=O)CO` [CORTISONE], for which the IC50 result is “Not Active”.

The next assay has as its target Melanocortin receptor 4 (Homo sapiens, UniProt P32245). Further: in other assays of this panel Not Active means under 50% inhibition at 10 µM.
Assay: not given
It counts as cell membranes, Membrane. The settings on record: hek293.
Take `C[C@]12CCC(=O)C=C1CC[C@@H]1[C@@H]2C(=O)C[C@@]2(C)[C@H]1CC[C@]2(O)C(=O)CO` [CORTISONE]: the IC50 result was “Not Active”.

The target in the next assay is Tyrosine-protein kinase Fyn (Homo sapiens, UniProt P06241). Put plainly: biochemical. It is filed as cell-based, Insect cells. The settings on record: insect cells.
Tyrosine-protein kinase Fyn, sequence (P06241 whole entry): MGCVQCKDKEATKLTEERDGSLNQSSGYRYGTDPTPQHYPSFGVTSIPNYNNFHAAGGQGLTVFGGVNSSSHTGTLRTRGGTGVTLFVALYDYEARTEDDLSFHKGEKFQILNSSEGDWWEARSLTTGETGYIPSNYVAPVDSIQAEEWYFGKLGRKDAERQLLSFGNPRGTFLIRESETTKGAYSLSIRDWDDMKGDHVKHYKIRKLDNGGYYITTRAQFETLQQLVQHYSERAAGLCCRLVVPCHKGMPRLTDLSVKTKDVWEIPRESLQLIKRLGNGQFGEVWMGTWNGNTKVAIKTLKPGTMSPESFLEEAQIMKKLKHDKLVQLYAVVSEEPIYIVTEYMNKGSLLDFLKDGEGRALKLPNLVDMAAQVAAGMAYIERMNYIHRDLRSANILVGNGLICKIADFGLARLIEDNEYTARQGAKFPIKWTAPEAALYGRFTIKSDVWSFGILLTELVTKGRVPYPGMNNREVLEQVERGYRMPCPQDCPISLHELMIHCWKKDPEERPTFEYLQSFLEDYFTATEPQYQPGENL
Consider `C[C@]12CCC(=O)C=C1CC[C@@H]1[C@@H]2C(=O)C[C@@]2(C)[C@H]1CC[C@]2(O)C(=O)CO` [CORTISONE], for which the IC50 entry is “Not Active”.
